Assay results as given in patent publication US8822172B2, “Method of detecting isolevuglandin phospholipid adducts” (Case Western Reserve University, priority 2009, dated 2014).
Where two headings read alike, the source gives them in different places.

Tests used:
TNF-α = settings: long-term ethanol feeding; early peak at 2% d2, later peak at 5% wk 4
Text: (§1) All procedures using animals were approved by the Cleveland Clinic Foundation Institutional Animal Care and Use Committees. Mice were housed in shoe-box cages (2 animals/cage) with microisolator lids. Standard microisolator handling procedures were used throughout the study. Mice were randomized into ethanol-fed and pair-fed groups and then adapted to control liquid diet for 2 days. The ethanol-fed group was allowed free access to ethanol containing diet with increasing concentrations of ethanol: 1% (vol/vol) and 2% each for 2 days, then 4% ethanol for 7 d, and finally 5% ethanol for a further 4 weeks. For the dose-response experiment, mice were allowed free access to 1% ethanol for 2 days and then 2%, 4% or 6% ethanol for a further 2 days. Control mice were pair-fed diets which iso-calorically substituted maltose dextrins for ethanol over the entire feeding period. Mice were then anesthetized, blood samples taken into non-heparinized syringes from the posterior vena cava, livers blanched with saline via the portal vein and then excised. Portions of each liver were then either fixed in formalin or frozen in optimal cutting temperature (OCT) compound (Sakura Finetek U.S.A., Inc., Torrance Calif.) for histology, frozen in RNAlater (Qiagen, Valencia, Calif.) or flash frozen in liquid nitrogen and stored at −80° C. until further analysis. […]

mouse liver [1] = settings: short-term model of ethanol exposure, 2, 4 or 6% for 2 days
Text: as §1

mouse liver [2] = settings: chronic ethanol-fed vs pair-fed mice, P=0.00021
Method: The tissue was homogenized manually using a Teflon-coated stainless steel pestle. After homogenization, the resulting mixture was placed in a 4° C. freezer for 30 min to maximize the lipid extraction efficiency. An aqueous solution of sodium chloride (1.5%, w/w, 1/4 the volume of the organic extract) was added. The resulting mixture was centrifuged at 3000 rpm for 15 min. The lower layer containing the lipids was carefully withdrawn with a polyethylene transfer pipette, making sure to avoid the interface or upper layer. The solvents were then evaporated under a stream of dry argon at room temperature, and the sample was stored under argon at −80° C. before being analyzed using LC-MS/MS.
The resulting mixture was sonicated for 5 min followed by the addition of PLA2 enzyme (50 μl of 10,000 units/ml). […]
Direct infusion MS and LC-MS/MS were performed on a Quattro Ultima triple-quadrupole mass spectrometer (Micromass, Wythenshawe, UK). […] The total ion current was measured in the mass-to-charge ratio (m/z) range of 50-900 at 30 V of cone energy in the negative ion mode with a 3.5-kV electrospray capillary voltage, 60-V cone voltage, 120° C. source temperature, 250° C. desolvation temperature, 65 L/h cone gas flow, and 658 L/h desolvation gas flow. […] All retention times of analytes shown in MRM spectra were recorded relative to the internal standard (iso[4]LGE2-D31-lysoPE-HL, 11.83 min). […]

mouse liver [3] = settings: chronic ethanol-fed mouse liver (5% wk 4), ELISA and LC/MS
Text: Mice were housed in shoe-box cages (2 animals/cage) with microisolator lids. Standard microisolator handling procedures were used throughout the study. […] Mice were then anesthetized, blood samples taken into non-heparinized syringes from the posterior vena cava, livers blanched with saline via the portal vein and then excised. Portions of each liver were then either fixed in formalin or frozen in optimal cutting temperature (OCT) compound (Sakura Finetek U.S.A., Inc., Torrance Calif.) for histology, frozen in RNAlater (Qiagen, Valencia, Calif.) or flash frozen in liquid nitrogen and stored at −80° C. until further analysis. Blood was transferred to heparin-containing tubes for the isolation of plasma. Plasma was then stored at −80° C.
Liver homogenates were prepared as described except that 50 μM butylated hydroxytoluene (BHT) and 100 μM diethylenetriamine pentaacetic acid (DTPA) were added to the buffer to prevent aerial oxidation of lipids during homogenization. 50 μg of protein was used in the ELISA.

plasma ALT = settings: short-term model, 2, 4 or 6% ethanol diet for 2 days
Text: (§2) All procedures using animals were approved by the Cleveland Clinic Foundation Institutional Animal Care and Use Committees. Mice were housed in shoe-box cages (2 animals/cage) with microisolator lids. Standard microisolator handling procedures were used throughout the study. […] Mice were then anesthetized, blood samples taken into non-heparinized syringes from the posterior vena cava, livers blanched with saline via the portal vein and then excised. Portions of each liver were then either fixed in formalin or frozen in optimal cutting temperature (OCT) compound (Sakura Finetek U.S.A., Inc., Torrance Calif.) for histology, frozen in RNAlater (Qiagen, Valencia, Calif.) or flash frozen in liquid nitrogen and stored at −80° C. until further analysis. Blood was transferred to heparin-containing tubes for the isolation of plasma. Plasma was then stored at −80° C.
Plasma samples were assayed for alanine aminotransferase (ALT) using a commercially available enzymatic assay kit (Diagnostic Chemicals, LTD, Oxford, Conn.) following the manufacturer's instructions.

hepatic triglycerides = settings: short-term model, 2, 4 or 6% ethanol diet for 2 days
Text: as §2
Formalin-fixed tissues were paraffin embedded, sectioned and stained with hematoxylin and eosin. Sections were coded prior to analysis and examined by two independent individuals. For Oil Red O staining, 10 micron sections were cut from frozen OCT samples and affixed to a microscope slide. Slides were then stored at 4° C. until staining. […] Total liver triglycerides were measured using the Triglyceride Reagent Kit from Pointe Scientific Inc. (Lincoln Park, Mich.).

CYP2E1 = settings: chronic ethanol feeding, maximum at 5% wk 2
Text: All procedures using animals were approved by the Cleveland Clinic Foundation Institutional Animal Care and Use Committees. Mice were housed in shoe-box cages (2 animals/cage) with microisolator lids. Standard microisolator handling procedures were used throughout the study. […] Mice were then anesthetized, blood samples taken into non-heparinized syringes from the posterior vena cava, livers blanched with saline via the portal vein and then excised. Portions of each liver were then either fixed in formalin or frozen in optimal cutting temperature (OCT) compound (Sakura Finetek U.S.A., Inc., Torrance Calif.) for histology, frozen in RNAlater (Qiagen, Valencia, Calif.) or flash frozen in liquid nitrogen and stored at −80° C. until further analysis. […]
0.5-1.0 g of frozen liver tissue was homogenized in 10 ml/g tissue in lysis buffer (50 mM Tris-HCl, pH7.4, 1% NP-40, 0.25% Na-deoxycholate, 150 mM NaCl, 1 mM EDTA with added protease inhibitors Complete™ (Roche Diagnostics, Mannheim, Germany), 17.5 μg/ml aprotinin, 5 μg/ml bestatin, 10 μg/ml leupeptin, 1 mg/ml bacitracin, and 20 μg/ml E64) and phosphatase inhibitors (1 mM vanadate and 10 mM Na pyrophosphate)) using 15 strokes in a glass on glass homogenizer (loose pestle). […] Protein concentrations were measured. […] Bound antibody was detected by chemiluminescence. Immunoreactive protein quantity was assessed by scanning densitometry.

[4] = Cu^2+; cited from earlier work
[5] = Fe^3+; cited from earlier work
[6] = Ca2^+; cited from earlier work

Row | SMILES | TNF-α in mouse liver (TNF-α) | 4-HNE, LGE2 and iso[4]LGE2-protein adducts in liver (mouse liver [1]) | isoLG-lysoPE-HL liver levels compared to pair-fed mice (mouse liver [2]) | adducts of iso[4]LGE2 in liver compared to pair-fed animals (mouse liver [3]) [fold] | plasma ALT (plasma ALT) | hepatic triglycerides (hepatic triglycerides) | hepatic CYP2E1 expression (CYP2E1) | stability constant log K of EDTA complex [4] | stability constant log K of EDTA complex [5] | stability constant log K of EDTA complex [6]
1 | CCO [ethanol] | biphasic induction | increased only at 6% ethanol feeding | Twofold higher | 2 | increased at 4 and 6% | increased at 4 and 6% | increased over time | – | – | –
2 | O=C(O)CN(CCN(CC(=O)O)CC(=O)O)CC(=O)O [EDTA, ethylenediaminetetraacetic acid] | – | – | – | – | – | – | – | 18.8 | 25.1 | 10.7
